Earlier results, collected in patent publication US6297239A, “Inhibitors of prenyl-protein transferase” (Merck & Co., Inc., priority 1998, dated 2001).

Tested on: farnesyl-protein transferase
Conditions: via inhibition of HMG-CoA reductase

| Structure (SMILES) | indirect inhibition of farnesyl-protein transferase in vivo |
| --- | --- |
| CC[C@H](C)C(=O)O[C@H]1C[C@@H](C)C=C2C=C[C@H](C)[C@H](CC[C@@H]3C[C@@H](O)CC(=O)O3)[C@H]21 [lovastatin] | Indirect inhibition |
| CC[C@H](C)C(=O)O[C@H]1CCC=C2C=C[C@H](C)[C@H](CC[C@@H]3C[C@@H](O)CC(=O)O3)[C@H]21 [compactin] | Indirect inhibition |
